Measurements reported in US10543217B2, “Method of treating frailty” (Organext Research B.V., priority 2009, dated 2020).

Assays:
Type in all cases: cell-based
[1] = test system: human skeletal muscle cells (hSkMC1); assay: Proliferation of human skeletal muscle cells, batch hSkMC1 (resazurin assay); conditions: for Effect on proliferation (FIG. 3a, in words): individual compounds and all 4 combinations, combinations P<0.001, except 100 nM nandrolone plus 100 nM P<0.05
Method: (§1) Two different batches of human skeletal muscle cells or satellite cells (hSkMC1—obtained from a healthy person—and hSkMC2—obtained from a healthy person) were obtained from PromoCell (Heidelberg, Germany) and cultured in flasks according to the instructions by the provider. Cells were harvested and stored in liquid nitrogen until used for the experiments. Cells were not used at passage number higher than 15. For the experiments cells were cultured at 37° C. and 5% CO2 at a density of 3,500-7,000 cells/cm2 in basal medium (PromoCell) plus the addition of 5% charcoal (Sigma-Aldrich) treated fetal bovine serum (FBS) (PAA, Germany) using 24-well plates (Costar) til about 80% confluency.
(§2) Medium and hormones were replaced on day 1, 4 and 7. Proliferation was measured using the resazurin assay (Stern-Straeter et al., 2008). Statistical analysis of the proliferation data was performed with the Student's t-test.

[2] = test system: human skeletal muscle cells (hSkMC2); assay: Proliferation of human skeletal muscle cells, batch hSkMC2 (resazurin assay)
Method: as §1, §2

[3] = test system: vitamin D receptor expression in human skeletal muscle cells (hSkMC1); assay: Vitamin D receptor expression by flow cytometry, hSkMC1 cells; conditions: compared with hSkMC2, data not shown
Method: as §1
(§3) Androgen and vitamin D receptor staining protocols with the subsequent visualization by flow cytometry methods were derived from the publications of Krishan et al. (2000) and Folgueira et al. (2000). […] All solutions further contained Tween 20 (Sigma Aldrich) as detergent to maintain the permeabilized status of the cells throughout the entire staining experiment. The staining in non-stimulated and stimulated cells were compared by determining the intensity of the staining in the cells as well as the staining in the % of cells. […] The increase in the % of stained cells beyond the setpoint of the marker (at 1% for background staining) was determined with and without hormonal treatment.

[4] = test system: vitamin D receptor (VD3R) expression in human skeletal muscle cells (hSkMC2); assay: Vitamin D receptor expression by flow cytometry, hSkMC2 cells; conditions: 5 days of treatment, flow cytometry (FIG. 2)
Method: as §1, §3

Row | Structure (SMILES) | Percentage increase (% Δ) in proliferation compared to control ([1]; 10 nM dhvit D3, 8 days) [%] | Percentage increase (% Δ) in proliferation compared to control ([1]; 100 nM dhvit D3, 8 days) [%] | Effect on proliferation (FIG. 3a, in words) [1] | Percentage increase (% Δ) in proliferation compared to control ([2]; 10 nM dhvit D3, 8 days) [%] | Percentage increase (% Δ) in proliferation compared to control ([2]; 100 nM dhvit D3, 8 days) [%] | Effect on proliferation (FIG. 3b, in words) ([2]; higher concentrations of 1α,25-dihydroxyvitamin D3, 4 combinations vs control P<0.05, except 100 nM nandrolone plus 10 nM P<0.001) | Effect on vitamin D receptor expression [3] | Percentage increase (% Δ) in proliferation compared to control ([1]; 100 nM nandrolone, 8 days) [%] | Percentage increase (% Δ) in proliferation compared to control ([1]; 1000 nM nandrolone, 8 days) [%] | Percentage increase (% Δ) in proliferation compared to control ([2]; 100 nM nandrolone, 8 days) [%] | Percentage increase (% Δ) in proliferation compared to control ([2]; 1000 nM nandrolone, 8 days) [%] | Change in number of cells with positive vitamin D receptor [4]
1 | C=C1/C(=C\C=C2/CCC[C@]3(C)[C@@H]([C@H](C)CCCC(C)(C)O)CC[C@@H]23)C[C@@H](O)C[C@@H]1O [dhvit D3, 1α,25-dihydroxyvitamin D3] | 1 | −5 | no effect on proliferation | 1 | 8 | an increase in proliferation | less pronounced | – | – | – | – | –
2 | C[C@]12CC[C@H]3[C@@H](CCC4=CC(=O)CC[C@@H]43)[C@@H]1CC[C@@H]2O [nandrolone] | – | – | no effect on proliferation | – | – | – | less pronounced | 3 | 1 | 4 | 1 | increases
